In US20230083885A1, “MODULATORS OF INTEGRATED STRESS RESPONSE PATHWAY” (Praxis Biotech LLC, priority 2021, published 2023) one finds IC50 and activity data, which are given here for 23 compounds.

In one experiment the test system is ATF4. Nature of the experiment: ATF4 expression inhibition assay (ATF4 5'UTR luciferase reporter, thapsigargin-stressed). The format is cell-based. As to conditions: Homo sapiens, HEK-293T, read-out: ATF4 inhibition. As to the method:
The ATF4 reporter was prepared by fusing the human full length 5′UTR of ATF4 (NCBI Accession No. BC022088.2) upstream of the firefly luciferase coding sequence lacking the initiator methionine. The fused sequence was cloned into pLenti-EF1a-C-Myc-DDK-IRES-Puro cloning vector (Origen #PS100085) using standard methods.
HEK293T cells carrying the ATF4 luciferase reporter were plated on 96-well plates (Nunc) at 10,000 cells per well. Cells were treated two days after seeding with 100 nM thapsigargin (Tg) (Sigma-Aldrich #T9033) in the presence of different concentrations of selected compounds ranging from 0.1 nM to 10 μM. Cells without treatment or cells treated with Tg alone were used as controls. Assay plates containing cells were incubated for 3 hours at 37° C.
Luciferase reactions were performed using Luciferase Assay System (Promega #E1501) as specified by the manufacturer. Luminescence was read with an integration time of 1 s and a gain of 110 using a Cytation-5 multi-mode microplate reader (BioTek).
Background: A reporter such as luciferase makes a cellular process visible.

The test system of experiment [1] is Chinese hamster ovary (CHO) cells. The experiment in a line: Protein synthesis assay (puromycin incorporation, Western blot). As to conditions: Cricetulus griseus, read-out: % Protein synthesis relative to untreated (1 μM test compound). The format is cell-based. As to the method:
Chinese hamster ovary (CHO) cells were maintained at 37° C. and 5% CO2 in Dulbecco's Modified Eagle's Media (DMEM) supplemented with 10% fetal bovine serum, 2 mM L-glutamine, 100 U/ml penicillin, and 100 μg/ml streptomycin. After reaching 80% of confluence, cells were detached and seeded on 6 well plates in complete media, allowed to recover overnight and treated for 2 hours with 1 μM of the test compound (to assess protein synthesis levels in unstressed condition), or for 2 hours with 300 nM Tg in the presence of 1 μM of the test compound (to assess the recovery of protein synthesis in a stressed condition). Cells with Tg alone were used as controls.
After the 2 hours treatments, media were replaced by adding 10 μg/ml puromycin (Sigma Aldrich #P8833) in complete media for 30 min. Media were removed and cells were lysed with SDS-PAGE lysis buffer. Lysates were transferred to 1.5 ml tubes and sonicated for 3 min and total protein amount were quantified using BCA Protein Assay Kit (Pierce). Equal amount of protein (30 μg) was loaded on SDS-PAGE gels.
A HRP-conjugated secondary antibody (Rockland) was employed to detect immune-reactive bands using enhanced chemiluminescence (ECL Western Blotting Substrate, Pierce). Quantification of protein bands was done by densitometry using ImageJ software.
The percentage levels were normalized to the media alone condition, which correspond to 100% protein synthesis. […]
For orientation: In western blotting, separated proteins are transferred to a membrane and probed.

[2] abbreviates: HEK293T cells carrying ATF4 luciferase reporter, 100 nM thapsigargin, 3 hours.
Setting [3] is: unstressed CHO cells (without Tg), 1 μM test compound, 2 hours, media alone = 100%.

Molecules are shown by their SMILES. Where two headings read alike, the source gives them in different places.

In the case of `O=C(COc1ccc(Cl)c(F)c1)N[C@H]1CC[C@H](c2nnc([C@@H]3CNc4cc(Cl)ccc4O3)o2)CC1` (single isomer, unassigned) [Compound 42], the IC50 in the experiment on ATF4 (setting [2]) is below 10 nM. For the same compound, the activity at 1 µM in experiment [1] (setting [3]) is 79.9%.

Regarding `O=C(Nc1ccc2cc(Cl)ccc2n1)[C@H]1CC[C@H](c2nnc(C3CCC(F)(F)CC3)o2)CC1` [Compound 28, trans-N-(6-chloroquinolin-2-yl)-4-(5-(4,4-difluorocyclohexyl)-1,3,4-oxadiazol-2-yl)cyclohexanecarboxamide], the IC50 in the experiment with ATF4 (setting [2]) fell in the range of 100 to 1000 nM. Besides, the activity at 1 µM in experiment [1] (setting [3]) came out at 23.8%.

Consider `O=C(COc1ccc(Cl)c(F)c1)N[C@H]1CC[C@@H](c2cnn(-c3ccc(Cl)cc3)c2)CC1` [Compound 36, cis-2-(4-chloro-3-fluorophenoxy)-N-(4-(1-(4-chlorophenyl)-1H-pyrazol-4-yl)cyclohexyl)acetamide], for which the IC50 in the experiment on ATF4 (setting [2]) lay within 100 to 1000 nM. Besides, the activity at 1 µM in experiment [1] (setting [3]) came out at 6.4%.

As to `O=C(COc1ccc(Cl)c(F)c1)N[C@H]1CC[C@H](c2nnc([C@H]3CNc4cc(Cl)ccc4O3)o2)CC1` (single isomer, unassigned) [Compound 43], the IC50 with ATF4 (setting [2]) is below 10 nM. In experiment [1] (setting [3]), the activity at 1 µM came out at 86.3%.

Turning to `O=C(COc1ccc(Cl)c(F)c1)NN1CCC(c2nnc([C@H]3C[C@@H](OC(F)(F)F)C3)o2)CC1` [Compound 242, 2-(4-chloro-3-fluorophenoxy)-N-(4-(5-(cis-3-(trifluoromethoxy)cyclobutyl)-1,3,4-oxadiazol-2-yl)piperidin-1-yl)acetamide], the IC50 in the experiment on ATF4 (setting [2]) is below 10 nM. In addition, the activity at 1 µM in experiment [1] (setting [3]) was 23%.

Turning to `O=C(COc1ccc(Cl)c(F)c1)N[C@H]1CC[C@H](c2cnn(-c3ccc(Cl)cc3)c2)CC1` [Compound 37, trans-2-(4-chloro-3-fluorophenoxy)-N-(4-(1-(4-chlorophenyl)-1H-pyrazol-4-yl)cyclohexyl)acetamide], the IC50 in the experiment on ATF4 (setting [2]) is below 10 nM. Also, the activity at 1 µM in experiment [1] (setting [3]) was 24.3%.

Consider `O=C(COc1ccc(Cl)c(F)c1)NN1CCC(c2nnc(-c3ccc(Cl)cc3)o2)CC1` [Compound 35, 2-(4-chloro-3-fluorophenoxy)-N-(4-(5-(4-chlorophenyl)-1,3,4-oxadiazol-2-yl)piperidin-1-yl)acetamide], for which the IC50 in the experiment on ATF4 (setting [2]) was below 10 nM. Moreover, the activity at 1 µM in experiment [1] (setting [3]) is 51.6%.

Take `O=C(COc1ccc(Cl)c(F)c1)N[C@H]1CC[C@H](c2nnc([C@H]3C[C@@H](C(F)(F)F)C3)o2)CC1` [Compound 243, trans-2-(4-chloro-3-fluorophenoxy)-N-(4-(5-(cis-3-(trifluoromethyl)cyclobutyl)-1,3,4-oxadiazol-2-yl)cyclohexyl)acetamide]: the IC50 with ATF4 (setting [2]) is 10 to 100 nM. The activity at 1 µM in experiment [1] (setting [3]) was -39.1%.

`O=C(N[C@H]1CC[C@H](c2nnc(-c3ccc(Cl)cc3)o2)CC1)c1cnc(C(F)F)cn1` [Compound 15, trans-N-(4-(5-(4-chlorophenyl)-1,3,4-oxadiazol-2-yl)cyclohexyl)-5-(difluoromethyl)pyrazine-2-carboxamide]: in the experiment on ATF4 (setting [2]), the IC50 fell in the range of 10 to 100 nM. Also, the activity at 1 µM in experiment [1] (setting [3]) amounted to 103%.

With `O=C(COc1ccc(Cl)c(F)c1)N[C@H]1CC[C@H](c2nnc(-c3ccc4cc(Cl)ccc4n3)o2)CC1` [Compound 14, trans-2-(4-chloro-3-fluorophenoxy)-N-(4-(5-(6-chloroquinolin-2-yl)-1,3,4-oxadiazol-2-yl)cyclohexyl)acetamide], the IC50 in the experiment with ATF4 (setting [2]) was below 10 nM. In addition, in experiment [1] (setting [3]), the activity at 1 µM turned out to be 176%.

Consider `O=C(COc1ccc(Cl)cc1)N[C@H]1CC[C@H](c2nnc(-c3ccc(Cl)cc3)o2)CC1` [Compound 8, trans-2-(4-chlorophenoxy)-N-(4-(5-(4-chlorophenyl)-1,3,4-oxadiazol-2-yl)cyclohexyl)acetamide], for which the IC50 in the experiment on ATF4 (3 h) was below 10 nM. In experiment [1] (CHO, 2 h), the activity at 1 µM stood at 96.9%.

For `O=C(COc1ccc(Cl)cc1)NC[C@H]1CC[C@H](c2nnc(-c3ccc(Cl)cc3)o2)CC1` [Compound 4, trans-2-(4-chlorophenoxy)-N-((-4-(5-(4-chlorophenyl)-1,3,4-oxadiazol-2-yl)cyclohexyl)methyl)acetamide], the IC50 in the experiment on ATF4 (3 h) is above 1000 nM. Moreover, the activity at 1 µM in experiment [1] (CHO, 2 h) was 123%.

On to `O=C(COc1ccc(Cl)c(F)c1)N[C@H]1CC[C@H](c2nc(-c3ccc(Cl)cc3)cs2)CC1` [Compound 34, trans-2-(4-chloro-3-fluorophenoxy)-N-(4-(4-(4-chlorophenyl)thiazol-2-yl)cyclohexyl)acetamide], for which the IC50 in the experiment on ATF4 (3 h) was below 10 nM. The activity at 1 µM in experiment [1] (CHO, 2 h) came out at 83.4%.

Regarding `O=C(NC[C@H]1CC[C@H](c2nnc(-c3ccc(Cl)cc3)o2)CC1)c1cc2cc(Cl)ccc2o1` [Compound 2, trans-5-chloro-N-((4-(5-(4-chlorophenyl)-1,3,4-oxadiazol-2-yl)cyclohexyl)methyl)benzofuran-2-carboxamide], the IC50 in the experiment with ATF4 (setting [2]) is 100 to 1000 nM. Further, the activity at 1 µM in experiment [1] (setting [3]) was 136%.

For `O=C(COc1ccc(Cl)c(F)c1)N[C@H]1CC[C@H](c2nnc(Cc3ccc(Cl)cc3)o2)CC1` [Compound 238, 2-(4-chloro-3-fluorophenoxy)-N-(trans-4-(5-(4-chlorobenzyl)-1,3,4-oxadiazol-2-yl)cyclohexyl)acetamide], in the experiment with ATF4 (setting [2]), the IC50 was below 10 nM. Further, the activity at 1 µM in experiment [1] (setting [3]) is 74.6%.

Take `O=C(COc1ccc(Cl)c(F)c1)N[C@H]1CC[C@H](n2cnc(-c3ccc(Cl)cc3)c2)CC1` [Compound 44, trans-2-(4-chloro-3-fluorophenoxy)-N-(4-(4-(4-chlorophenyl)-1H-imidazol-1-yl)cyclohexyl)acetamide]: the IC50 with ATF4 (setting [2]) was below 10 nM. Besides, the activity at 1 µM in experiment [1] (setting [3]) amounted to 39.5%.

Turning to `O=C(COc1ccc(Cl)c(F)c1)N[C@H]1CC[C@H](c2nnc(COc3ccc(Cl)cc3)o2)CC1` [Compound 12, trans-2-(4-chloro-3-fluorophenoxy)-N-(4-(5-((4-chlorophenoxy)methyl)-1,3,4-oxadiazol-2-yl)cyclohexyl)acetamide], in the experiment on ATF4 (setting [2]), the IC50 was below 10 nM. For the same compound, the activity at 1 µM in experiment [1] (setting [3]) worked out at 144%.

Regarding `O=C(COc1ccc(Cl)c(F)c1)NC[C@H]1CC[C@H](c2nnc(-c3ccc(Cl)cc3)o2)CC1` [Compound 3, trans-2-(4-chloro-3-fluorophenoxy)-N-((4-(5-(4-chlorophenyl)-1,3,4-oxadiazol-2-yl)cyclohexyl)methyl)acetamide], the IC50 with ATF4 (setting [2]) lay in the range of 10 to 100 nM. The activity at 1 µM in experiment [1] (setting [3]) came to 138%.

For `O=C(Nc1ccc2cc(Cl)ccc2n1)[C@H]1CC[C@H](c2nnc([C@H]3CC[C@@H](C(F)(F)F)CC3)o2)CC1` [Compound 31, trans-N-(6-chloroquinolin-2-yl)-4-(5-(cis-4-(trifluoromethyl)cyclohexyl)-1,3,4-oxadiazol-2-yl)cyclohexanecarboxamide], the IC50 in the experiment on ATF4 (setting [2]) was above 1000 nM. For the same compound, the activity at 1 µM in experiment [1] (setting [3]) came out at 4.9%.

On to `O=C(COc1ccc(Cl)c(F)c1)N[C@H]1CC[C@H](c2nnc(-c3ccc(Cl)c(F)c3)o2)CC1` [Compound 17, trans-2-(4-chloro-3-fluorophenoxy)-N-(4-(5-(4-chloro-3-fluorophenyl)-1,3,4-oxadiazol-2-yl)cyclohexyl)acetamide], for which, in the experiment on ATF4 (setting [2]), the IC50 is below 10 nM. Also, the activity at 1 µM in experiment [1] (setting [3]) was determined as 105%.

Consider `O=C(Nc1ccc2cc(Cl)ccc2n1)[C@H]1CC[C@H](c2nnc(Cc3ccc(Cl)cc3)o2)CC1` [Compound 237, trans-4-(5-(4-chlorobenzyl)-1,3,4-oxadiazol-2-yl)-N-(6-chloroquinolin-2-yl)cyclohexanecarboxamide], for which, in the experiment on ATF4 (setting [2]), the IC50 is 10 to 100 nM. Moreover, the activity at 1 µM in experiment [1] (setting [3]) is 51.3%.

As to `O=C(COc1ccc(Cl)c(F)c1)N[C@H]1CC[C@H](c2nnc(Cc3ccc(Cl)c(F)c3)o2)CC1` [Compound 244, N-(trans-4-(5-(4-chloro-3-fluorobenzyl)-1,3,4-oxadiazol-2-yl)cyclohexyl)-2-(4-chloro-3-fluorophenoxy)acetamide], the IC50 in the experiment with ATF4 (setting [2]) is below 10 nM. Further, in experiment [1] (setting [3]), the activity at 1 µM came out at 94%.

As for `O=C(N[C@H]1CC[C@H](c2nnc(-c3ccc(Cl)cc3)o2)CC1)c1ccc2cc(Cl)ccc2n1` [Compound 5, trans-6-chloro-N-(4-(5-(4-chlorophenyl)-1,3,4-oxadiazol-2-yl)cyclohexyl)quinoline-2-carboxamide], the IC50 in the experiment on ATF4 (setting [2]) was below 10 nM. Further, the activity at 1 µM in experiment [1] (setting [3]) worked out at 139%.
